Measurements from the supplement of paper PMC11061612.

What was measured:
Assay in all cases: Bliss excess, mean over the matrix (fraction); higher = more synergy
[1] = tested on: SUP-T1 (T-Lymphoblastic Leukemia)
Outline: (§1)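 Bliss excess equals the observed combination effect minus the expected value EA + EB − EA·EB, where EA and EB are the effects of each agent alone. Combination Emax is the second-highest inhibition within the matrix. Inhibition was scaled from CellTiter-Glo 2.0 luminescence, with 0 set by vehicle wells and 1 by blank wells, after 72 hours of two-drug dosing of cells plated in 1536-well plates.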

[2] = tested on: SU-DHL-6 (B-Cell Non-Hodgkin's Lymphoma)
Outline: as §1

[3] = tested on: CAL-54 (Kidney Carcinoma)
Outline: as §1

HMV-II (Melanoma) = tested on: HMV-II (Melanoma)
Outline: as §1

[4] = tested on: CAPAN-1 (Pancreatic Carcinoma)
Outline: as §1

COLO-829 (Melanoma) = tested on: COLO-829 (Melanoma)
Outline: as §1

[5] = tested on: SW1116 (Colorectal Carcinoma)
Outline: as §1

[6] = tested on: HO-1-u-1 (Oral Cavity Carcinoma)
Outline: as §1

[7] = tested on: HDLM-2 (Hodgkin's Lymphoma)
Outline: as §1

[8] = tested on: SK-OV-3 (Ovarian Carcinoma)
Outline: as §1

[9] = tested on: Hs-633T (Other Solid Carcinomas)
Outline: as §1

[10] = tested on: NCI-H69 (Small Cell Lung Carcinoma)
Outline: as §1

Mewo (Melanoma) = tested on: Mewo (Melanoma)
Outline: as §1

[11] = tested on: RPMI-6666 (Non-Cancerous)
Outline: as §1

[12] = tested on: K5 (Thyroid Gland Carcinoma)
Outline: as §1

NCI-H2461 (Mesothelioma) = tested on: NCI-H2461 (Mesothelioma)
Outline: as §1

[13] = tested on: 8305C (Thyroid Gland Carcinoma)
Outline: as §1

[14] = tested on: HARA (Squamous Cell Lung Carcinoma)
Outline: as §1

[15] = tested on: KARPAS-231 (B-Cell Non-Hodgkin's Lymphoma)
Outline: as §1

[16] = tested on: MDA-MB-468 (Breast Carcinoma)
Outline: as §1

| SMILES | Bliss excess [1] | Bliss excess [2] | Bliss excess [3] | Bliss excess (HMV-II (Melanoma)) | Bliss excess [4] | Bliss excess (COLO-829 (Melanoma)) | Bliss excess [5] | Bliss excess [6] | Bliss excess [7] | Bliss excess [8] | Bliss excess [9] | Bliss excess [10] | Bliss excess (Mewo (Melanoma)) | Bliss excess [11] | Bliss excess [12] | Bliss excess (NCI-H2461 (Mesothelioma)) | Bliss excess [13] | Bliss excess [14] | Bliss excess [15] | Bliss excess [16] |
| --- | --- | --- | --- | --- | --- | --- | --- | --- | --- | --- | --- | --- | --- | --- | --- | --- | --- | --- | --- | --- |
| COc1nnc2ccc(N3CCC(c4ccc(OCCN5CCN(C)C(=O)[C@H]5C)cc4)CC3)nn12 [AZD5153] + C=CCn1c(=O)c2cnc(Nc3ccc(N4CCN(C)CC4)cc3)nc2n1-c1cccc(C(C)(C)O)n1 [AZD1775] (first compound max 1 µM, partner max 1 µM) | -0.068 | -0.0656 | -0.0366 | -0.0783 | -0.0397 | -0.0178 | -0.0506 | -0.0526 | -0.125 | -0.0428 | -0.0516 | -0.0303 | -0.0245 | -0.0821 | -0.0111 | -0.0344 | -0.077 | -0.0899 | -0.112 | – |
| COc1cc2ncnc(Nc3ccc(F)c(Cl)c3)c2cc1OCCCN1CCOCC1 [Gefitinib] + CC(C)n1c(=O)n(C)c2cnc3cc(F)c(-c4ccc(OCCCN5CCCCC5)nc4)cc3c21 [AZD1390] (first compound max 10 µM, 7x7, partner max 0.3 µM) | -0.0389 | 0.0167 | -0.0718 | -0.0442 | -0.0286 | -0.0599 | -0.0835 | -0.0212 | -0.0768 | -0.0442 | -0.0684 | -0.0122 | -0.0712 | -0.0657 | -0.0479 | -0.0733 | -0.147 | -0.0343 | -0.0423 | – |
| COc1nnc2ccc(N3CCC(c4ccc(OCCN5CCN(C)C(=O)[C@H]5C)cc4)CC3)nn12 [AZD5153] + Cn1cnc2c(F)c(Nc3ccc(Br)cc3Cl)c(C(=O)NOCCO)cc21 [Selumetinib] (first compound max 1 µM, 7x7, partner max 10 µM) | -0.052 | -0.0278 | -0.0165 | 0.0275 | -0.0226 | -0.0086 | 0.0036 | 0.0747 | -0.0407 | -0.0545 | 0.0302 | -0.0503 | 0.0325 | -0.0462 | -0.0937 | -0.0415 | -0.0323 | 0.0308 | -0.0464 | – |
| COc1nnc2ccc(N3CCC(c4ccc(OCCN5CCN(C)C(=O)[C@H]5C)cc4)CC3)nn12 [AZD5153] + CCN(CCO)CCCOc1ccc2c(Nc3cc(CC(=O)Nc4cccc(F)c4)[nH]n3)ncnc2c1 [AZD2811] (first compound max 1 µM, 7x7, partner max 1 µM) | 0.0027 | -0.0215 | -0.0225 | -0.0481 | -0.08 | -0.0173 | -0.0632 | -0.121 | 0.0003 | -0.0703 | -0.0285 | 0.0048 | -0.0578 | -0.0656 | -0.0485 | -0.0421 | -0.0629 | -0.0548 | -0.203 | – |
| C[C@@H](c1ccc2nccn2c1)n1nnc2ncc(-c3cnn(C)c3)nc21 [Savolitinib] + Cc1c2c(nn1C)CSCc1cc(n(C)n1)CSc1cc(c3ccccc3c1)OCCCc1c(C(=O)O)n(C)c3c-2c(Cl)ccc13 [AZD5991] (first compound max 1 µM, 7x7, partner max 1 µM) | -0.0571 | -0.013 | -0.0337 | -0.0404 | -0.0702 | -0.0075 | -0.0252 | -0.034 | -0.0099 | -0.0556 | -0.0551 | -0.0269 | -0.0237 | -0.0329 | -0.0085 | -0.048 | -0.0781 | -0.0353 | -0.0258 | – |
| C=CCn1c(=O)c2cnc(Nc3ccc(N4CCN(C)CC4)cc3)nc2n1-c1cccc(C(C)(C)O)n1 [AZD1775] + CCc1c2c(nc3ccc(O)cc13)-c1cc3c(c(=O)n1C2)COC(=O)[C@]3(O)CC [SN-38] (first compound max 1 µM, partner max 0.3 µM) | -0.105 | 0.0224 | -0.0327 | -0.122 | -0.0635 | – | -0.0987 | 0.0391 | -0.0928 | -0.0557 | -0.0522 | -0.0629 | -0.0402 | -0.048 | -0.0219 | -0.1 | -0.0536 | -0.015 | – | -0.0811 |
| C=CCn1c(=O)c2cnc(Nc3ccc(N4CCN(C)CC4)cc3)nc2n1-c1cccc(C(C)(C)O)n1 [AZD1775] + C1CN(CCC1(C(=O)N[C@@H](CCO)C2=CC=C(C=C2)Cl)N)C3=NC=NC4=C3C=CN4 [Capivasertib] (first compound max 3 µM, partner max 3 µM) | -0.0212 | 0.0012 | -0.0622 | -0.0774 | – | 0.0335 | -0.0561 | 0.037 | -0.0503 | -0.0692 | 0.0389 | -0.0601 | -0.0433 | -0.0148 | 0.0493 | -0.0587 | 0.0069 | -0.0002 | 0.0311 | – |
| CS(=O)(=O)CCNCc1ccc(-c2ccc3ncnc(Nc4ccc(OCc5cccc(F)c5)c(Cl)c4)c3c2)o1 [Lapatinib] + NC1(c2ccc(-c3nc4ccn5c(=O)[nH]nc5c4cc3-c3ccccc3)cc2)CCC1 [MK-2206] (first compound max 10 µM, 7x7, partner max 10 µM) | -0.0215 | 0.0378 | -0.0009 | -0.0337 | -0.016 | -0.0245 | -0.01 | 0.0235 | -0.0168 | 0.0257 | 0.0256 | 0.0389 | 0.0072 | 0.0164 | 0.0293 | -0.0423 | 0.118 | 0.086 | – | 0.0008 |
| Cc1nc(-c2cn3c(n2)-c2ccc(-c4cnn(C(C)(C)C(N)=O)c4)cc2OCC3)n(C(C)C)n1 [Taselisib] + O=C(Nc1ccc2[nH]nc(-c3ccncc3)c2c1)[C@@H]1CCN(CC(=O)N2CCN(c3ccc(-c4ncccn4)cc3)CC2)C1 [SCH772984] (first compound max 10 µM, 7x7, partner max 5 µM) | 0.0502 | 0.0251 | -0.0024 | 0.0285 | 0.0449 | – | 0.0831 | 0.0064 | 0.0529 | 0.0609 | 0.0891 | 0.0251 | 0.017 | -0.001 | 0.0419 | -0.012 | 0.0199 | 0.0577 | – | -0.003 |
| Cn1cnc2c(F)c(Nc3ccc(Br)cc3Cl)c(C(=O)NOCCO)cc21 [Selumetinib] + CC(C)n1c(=O)n(C)c2cnc3cc(F)c(-c4ccc(OCCCN5CCCCC5)nc4)cc3c21 [AZD1390] (first compound max 10 µM, 7x7, partner max 0.3 µM) | -0.0481 | -0.0323 | -0.0377 | -0.0262 | -0.0537 | -0.0578 | -0.0094 | -0.0387 | -0.0509 | -0.0088 | 0.0303 | -0.0305 | -0.0086 | -0.0234 | -0.021 | -0.0377 | -0.057 | -0.0159 | -0.0101 | – |
| COc1nnc2ccc(N3CCC(c4ccc(OCCN5CCN(C)C(=O)[C@H]5C)cc4)CC3)nn12 [AZD5153] + CC1(C)CCC(CN2CCN(c3ccc(C(=O)NS(=O)(=O)c4ccc(NCC5CCOCC5)c([N+](=O)[O-])c4)c(Oc4cnc5[nH]ccc5c4)c3)CC2)=C(c2ccc(Cl)cc2)C1 [Venetoclax] (first compound max 1 µM, 7x7, partner max 1 µM) | -0.0766 | 0.0401 | -0.0374 | -0.0695 | -0.0874 | -0.0356 | -0.036 | -0.0352 | -0.0645 | -0.0371 | -0.0373 | -0.0445 | -0.0605 | -0.0153 | -0.049 | -0.0438 | -0.0901 | -0.0617 | -0.135 | – |
| Cn1cnc2c(F)c(Nc3ccc(Br)cc3Cl)c(C(=O)NOCCO)cc21 [Selumetinib] + C[C@@H]1COCCN1C2=NC(=NC(=C2)C3(CC3)[S@](=N)(=O)C)C4=C5C=CNC5=NC=C4 [AZD6738] (first compound max 10 µM, 7x7, partner max 10 µM) | -0.0747 | 0.0102 | -0.0083 | -0.0384 | 0.0147 | 0.102 | -0.0148 | 0.014 | -0.0422 | -0.0424 | -0.0012 | -0.0686 | -0.0236 | -0.0157 | 0.045 | -0.026 | -0.0238 | -0.0115 | 0.0287 | – |
| Cn1cnc2c(F)c(Nc3ccc(Br)cc3Cl)c(C(=O)NOCCO)cc21 [Selumetinib] + C=CCn1c(=O)c2cnc(Nc3ccc(N4CCN(C)CC4)cc3)nc2n1-c1cccc(C(C)(C)O)n1 [AZD1775] (first compound max 10 µM, partner max 1 µM) | -0.0663 | -0.0229 | -0.076 | -0.0494 | -0.0399 | -0.0734 | -0.0031 | 0.0454 | -0.092 | -0.0656 | -0.0094 | -0.0312 | -0.0304 | 0.023 | -0.0375 | -0.0676 | -0.0383 | -0.0406 | -0.0167 | – |
| COc1nnc2ccc(N3CCC(c4ccc(OCCN5CCN(C)C(=O)[C@H]5C)cc4)CC3)nn12 [AZD5153] + Cc1c2c(nn1C)CSCc1cc(n(C)n1)CSc1cc(c3ccccc3c1)OCCCc1c(C(=O)O)n(C)c3c-2c(Cl)ccc13 [AZD5991] (first compound max 1 µM, 7x7, partner max 1 µM) | -0.021 | -0.0326 | -0.0396 | -0.0092 | -0.0534 | -0.0168 | 0.0091 | -0.0055 | -0.0401 | -0.048 | 0.0227 | -0.0507 | -0.0453 | -0.0409 | -0.0635 | -0.0189 | -0.0922 | -0.0142 | -0.128 | – |
| CS(=O)(=O)CCNCc1ccc(-c2ccc3ncnc(Nc4ccc(OCc5cccc(F)c5)c(Cl)c4)c3c2)o1 [Lapatinib] + Cn1cnc2c(F)c(Nc3ccc(Br)cc3Cl)c(C(=O)NOCCO)cc21 [Selumetinib] (first compound max 10 µM, 7x7, partner max 10 µM) | -0.0679 | 0.0412 | 0.0022 | -0.141 | -0.0664 | – | 0.0744 | -0.0047 | 0.0023 | -0.0287 | 0.026 | -0.0384 | -0.0029 | 0.0204 | -0.022 | -0.0492 | -0.0297 | -0.0257 | – | -0.0835 |
